Assay [1] deals with partial meniscectomy/ACL transection rat model of surgical induced osteoarthritis and pain induced incapacitance. The assay can be described thus: Weight bearing (incapacitance tester) in rat partial meniscectomy/ACL transection model, Example 5. The assay is classed as in vivo. Here is the method: Rats were allowed to acclimatize for 1 week, followed by assessment of their weight bearing preference using an incapacitance meter. Unilateral medical meniscectomy and anterior cruciate ligament ligation (MMX/ACLT) surgery was performed on the right knee of a subject rat. Weight bearing preference was tested before and after surgery. After 2 weeks, treatments with both intra-articular (1) and. intra-peritoneal (6) administrations of EPM-301 began in the EPM-301 group. Weight bearing preference was then assessed 4 and 7 days after the start of therapy.
Wistar Rats (HsdHan female rats 225-249 grams) were acquired from Envigo. The rats were evaluated using an incapacitance tester. They were tested pre-operation, one-week post-operation, two weeks post-operation, prior to injection, 4 and 7 days post injections.
EPM-301 was dissolved in a solution mixture of 1:1:18 EtOH:cremophor:seline to a final concentration of 3.5 mg/mL.
Intra-articular (i.a.) injection was carried out with 100 uL and intra-peritoneal (i.p.) injections were carried out with 150 uL. All were injected i.a. in the first day. EPM-301 was injected via i.p. administration on the first day, and for 5 additional days everyday via i.p. administration.
Student's t-test was performed at the last follow-up time to determine effect of the therapy as primary endpoint. The level of significance was 0.05 alpha. ANOVA was used to compare all time points, a post-hob analysis with the Scheffe all comparisons method was performed. Calculations were performed using the Analyze-it Excel add-on function.
The percentage weight bearing was calculated as the amount of weight born (in grams) on the right hind limb divided by the amount of weight born on the left hind limb. The ratio was expressed as percentage weight bearing. There were 6 animals in the EPM-301 treated group and 4 animals in the control group.

The test system of assay [2] is partial meniscectomy/ACL transection rat model of surgical induced osteoarthritis. As to the kind of experiment: Morphological evaluation of the joint surfaces (osteophyte, gross surface, articular surface damage), Example 6. The assay is classed as in vivo. The procedure:
Morphological evaluation of the joint surfaces was performed using digital images of the joint. The parameters evaluated included percentage of articular surface damage of the proximal tibia calculated as the area of lesions divided by the total condylar surface area, gross surface score and osteophyte score as described (Yanagisawa et al. BMC Musculoskeletal Disorders. April 2016; 17:188).
The gross finding score in the articular cartilage was graded as follows: • (i) Grade 1—intact articular surface; • (ii) Grade 2—minimal osteophyte; • (iii) Grade 3—over spur formation; • (iv) Grade 4—width of erosion area 0 to 0.5 mm • (v) Grade 5—width of erosion area 0.5 to 1 mm. • (vi) Grade 6—width erosion area 1 to 1.5 mm • (vii) Grade 7—width of erosion area 1.5 to 2.0 mm • (viii) Grade 8—width of erosion area >2.0 mm
The osteophyte score was graded as follows: • (i) Grade 0—normal around the medial tibia; • (ii) Grade 1—osteophyte formation ⅓ around the medial tibia; • (iii) Grade 2—osteophyte formation halfway around the medial tibia; • (iv) Grade 3—osteophyte formation ⅔ around the medial tibia; • (v) Grade 4—osteophyte formation all around the medial tibia.

For assay [3], the system named is DSS induced acute colitis. The assay can be described thus: DSS induced acute colitis mouse model, EPM-301 versus EPM-302, Example 13. Type of assay: in vivo, C57BL/6 mice. The procedure: Colitis was induced in 10 weeks old female C57BL/6 mice using dextran sodium sulphate (DSS). Mice were fed for 8 days with 2% (wt/vol) DSS in their drinking water. […] EPM-302 served as an additional control.
Weight loss was measured on days 1, 3, 5, 8, and 10.
Next, the mice were sacrificed and the length of their colons were measured.
Cytokine levels of IL-6 and TNFα were measured using ELISA kits (R&D Systems, USA). Colon TNFα (FIG. 19), blood IL-6 (FIG. 20), levels were lower in mice treated with CBDA-Me (EPM-301) as compared to EPM-302. Similarly, the MEICS score of EPM-301 treated subjects were also lower than EPM-302 treated subjects (FIG. 21). Representative photos of colonoscopy can be seen in FIG. 22A-22D.

Another assay deals with LLCPK1 cells. The assay can be described thus: Cellular lipid accumulation test in renal proximal tubule cells. Particulars: 3.125-25 μM; cells exposed to a mixture of oleate and palmitate, 24 hr (FIG. 31). The assay is classed as cell-based. Here is the method: To test whether CBDA-ME has the ability to reduce lipid accumulation in renal proximal tubule cells, we have utilized an in vitro model of fat accumulation in LLCPK1 cells. Briefly, LLCPK1 cells were maintained at 37° C. in 5% CO2 in DMEM medium supplemented with 10% FCS, 2 mM 1-glutamine, 1 mM sodium pyruvate, 100 U/mL penicillin and […] streptomycin. Free fatty acids (2:1, molar ratio, oleic and palmitic acids) were mixed with bovine serum albumin (BSA). Cells were incubated with fatty acid-BSA complex in FCS-free culture medium at 0.3 mM final concentration of fatty acid and 1% of BSA. Control cell cultures were incubated with medium containing the vehicle. Compounds were tested in a range of concentrations (as detailed in the results section) in the presence/absence of fatty acids. After 24 hr of incubation with the compounds, the cells were washed, incubated with 1 μg/mL mixture of Nile-Red/Hoechst solution for 15 mins at 37° C. protected from light. Fluorescence was measured by the Cytation-3 plate reader at ex:488 nm/em:550 for Nile-Red and Hoechst, respectively. Results were normalized to total protein levels of each well, and presented as a change in the accumulation of lipids in comparison with Vehicle-treated group.

Molecules are shown by their SMILES.

Consider `C=C(C)[C@@H]1CCC(C)=CC1c1c(O)cc(CCCCC)c(C(=O)OC)c1O` (stereo partly shown) [EPM-301, cannabidiolic acid methyl ester], for which the “Rt limb weight bearing” value in assay [1] (following injection, 3.5 mg/mL, 100 uL i.a. once plus 150 uL i.p. on 6 days, control group 59.0%) is 106.7%. Moreover, in assay [1] (immediately prior to injection, two weeks following model induction (baseline before treatment)), the “weight bearing, average value” was determined as 42.25%. For the same molecule, the “Rt/Lt weight bearing, average value” in assay [1] (prior to operation (baseline of the group, before treatment)) came to 139.6%. Also, the gross surface score result in assay [2] (as compared to the HA and CS treated groups (FIG. 4)) was “improvement”. For the same molecule, the “percentage of articular surface damage” value in assay [2] (as compared to the HA and CS treated groups (FIG. 5)) is reported as “less”. Besides, the osteophyte score result in assay [2] (relative to the hyaluronic acid and the corticosteroid treatments (FIG. 3)) was “superiority”. Further, in assay [3] (10 mg/kg), the therapeutic effect entry is “not enough to induce a therapeutic effect”. Further, the weight loss entry in assay [3] (40 mg/kg by gavage, compared to CBD and EPM-302 (FIG. 17)) is listed as “reduced”. For the same molecule, the colon length result in assay [3] (40 mg/kg, versus EPM-302 and untreated mice, similar to prednisone (FIG. 18)) is given as “greater/longer”. Further, the “colon TNFα” value in assay [3] (as compared to EPM-302, ELISA (FIG. 19)) is reported as “lower”. For the same molecule, in assay [3] (as compared to EPM-302, ELISA (FIG. 20)), the “blood IL-6” value is listed as “lower”. For the same molecule, the MEICS score entry in assay [3] (versus EPM-302 treated subjects (FIG. 21)) was “lower”. For the same molecule, the “fat accumulation in kidney cells (lipotoxicity)” value in the assay on LLCPK1 cells was “prevent”.
